Among the data in US20120015907A1, “Furopyridine compounds and uses thereof” (NOVARTIS AG, priority 2010, published 2012) are IC50 values, retold here.

This experiment has as its target T1, HCV polymerase (Hepatitis C virus genotype 1b, UniProt Q9WMX2).
T1 construct: (His)6 (C)
Briefly: biochemical. The note with it: polymerase assay of Biological Example 1; read-out: NS5B polymerase IC50. From the text: A number of assays have been published to assess these activities. A general method that assesses the gross increase of HCV virus in culture was disclosed in U.S. Pat. No. 5,738,985 to Miles et al. In vitro assays have been reported in Ferrari et al. Jnl. of Vir., 73:1649-1654, 1999; Ishii et al., Hepatology, 29:1227-1235, 1999; Lohmann et al., Jnl of Bio. Chem., 274:10807-10815, 1999; and Yamashita et al., Jnl. of Bio. Chem., 273:15479-15486, 1998.
WO 97/12033, filed on Sep. 27, 1996, by Emory University, listing C. Hagedorn and A. Reinoldus as inventors, which claims priority to U.S. Provisional Patent Application Ser. No. 60/004,383, filed on September 1995, described an HCV polymerase assay that can be used to evaluate the activity of the of the compounds described herein. Another HCV polymerase assay has been reported by Bartholomeusz, et al., Hepatitis C Virus (HCV) RNA polymerase assay using cloned HCV non-structural proteins; Antiviral Therapy 1996:1(Supp 4) 18-24.
In the case of `CCCc1cc2c(C(=O)NC)c(-c3ccc(F)cc3)oc2nc1N(C)S(C)(=O)=O` [Example 4.96, 2-(4-fluorophenyl)-N-methyl-6-(N-methylmethylsulfonamido)-5-propylfuro[2,3-b]pyridine-3-carboxamide], the IC50 is 78 nM. For `CNC(=O)c1c(-c2ccc(F)cc2)oc2nc(N(C)S(C)(=O)=O)c(C(C)C(F)(F)F)cc12` (centres unmarked) [Example 6.1, 2-(4-fluorophenyl)-N-methyl-6-(N-methylmethylsulfonamido)-5-(1,1,1-trifluoropropan-2-yl)furo[2,3-b]pyridine-3-carboxamide] the value was 43 nM; for `CNC(=O)c1c(-c2ccc(F)cc2)oc2nc(N(C)S(C)(=O)=O)c(C(C)C)cc12` [Example 6.2, 2-(4-fluorophenyl)-5-isopropyl-N-methyl-6-(N-methylmethylsulfonamido)furo[2,3-b]pyridine-3-carboxamide], 58 nM. Regarding `C#Cc1cc2c(C(=O)NC)c(-c3ccc(F)cc3)oc2nc1N(C)S(C)(=O)=O` [Example 7, 5-ethynyl-2-(4-fluorophenyl)-N-methyl-6-(N-methylmethylsulfonamido)furo[2,3-b]pyridine-3-carboxamide], the IC50 is 60 nM.

With `CNC(=O)c1c(-c2ccc(F)cc2)oc2nc(N(C)S(C)(=O)=O)c(C(C)(F)F)cc12` [Example 8, 5-(1,1-difluoroethyl)-2-(4-fluorophenyl)-N-methyl-6-(N-methylmethylsulfonamido)furo[2,3-b]pyridine-3-carboxamide], the IC50 is 125 nM. As for `CNC(=O)c1c(-c2ccc(C)cc2)oc2nc(N(C)S(C)(=O)=O)c(CC(O)CO)cc12` (centres unmarked) [Example 9.1, 5-(2,3-dihydroxypropyl)-N-methyl-6-(N-methylmethylsulfonamido)-2-p-tolylfuro[2,3-b]pyridine-3-carboxamide], the IC50 amounted to 117 nM. The same measure for `CNC(=O)c1c(-c2ccc(C)cc2)oc2nc(N(C)S(C)(=O)=O)c(CCCO)cc12` [Example 9.2, 5-(3-hydroxypropyl)-N-methyl-6-(N-methylmethylsulfonamido)-2-p-tolylfuro[2,3-b]pyridine-3-carboxamide]: 82 nM. Regarding `CNC(=O)c1c(-c2ccc(F)cc2)oc2nc(N(C)S(C)(=O)=O)c(C(C)=O)cc12` [Example 10, 5-acetyl-2-(4-fluorophenyl)-N-methyl-6-(N-methylmethylsulfonamido)furo[2,3-b]pyridine-3-carboxamide], the IC50 came to 467 nM. With `CNC(=O)c1c(-c2ccc(F)cc2)oc2nc(N(C)S(C)(=O)=O)c(C(C)O)cc12` (centres unmarked) [Example 11, 2-(4-fluorophenyl)-5-(1-hydroxyethyl)-N-methyl-6-(N-methylmethylsulfonamido)furo[2,3-b]pyridine-3-carboxamide], the IC50 stood at 825 nM.

In the case of `CNC(=O)c1c(-c2ccc(F)cc2)oc2nc(N(C)S(C)(=O)=O)c(CC3CO3)cc12` (centres unmarked) [Example 12, 2-(4-fluorophenyl)-N-methyl-6-(N-methylmethylsulfonamido)-5-(oxiran-2-ylmethyl)furo[2,3-b]pyridine-3-carboxamide], the IC50 turned out to be 734 nM. The same measure for `CNC(=O)c1c(-c2ccc(F)cc2)oc2nc(N(C)S(C)(=O)=O)c(/C=C/C#N)cc12` [Example 13, (E)-5-(2-cyanovinyl)-2-(4-fluorophenyl)-N-methyl-6-(N-methylmethylsulfonamido)furo[2,3-b]pyridine-3-carboxamide]: 273 nM; for `CNC(=O)c1c(-c2ccc(F)cc2)oc2nc(N(C)S(C)(=O)=O)c(CCC#N)cc12` [Example 14, 5-(2-cyanoethyl)-2-(4-fluorophenyl)-N-methyl-6-(N-methylmethylsulfonamido)furo[2,3-b]pyridine-3-carboxamide]: 147 nM. As for `CNC(=O)c1c(-c2ccc(F)cc2)oc2nc(N(C)S(C)(=O)=O)c(CCCCCNC(C)=O)cc12` [Example 14.3, 5-(5-Acetylamino-pentyl)-2-(4-fluoro-phenyl)-6-(methanesulfonyl-methyl-amino)-furo[2,3-b]pyridine-3-carboxylic acid methylamide], the IC50 turned out to be 498 nM. The same measure for `CNC(=O)c1c(-c2ccc(F)cc2)oc2nc(N(C)S(C)(=O)=O)c(CCCN)cc12` [Example 15, 5-(3-aminopropyl)-2-(4-fluorophenyl)-N-methyl-6-(N-methylmethylsulfonamido)furo[2,3-b]pyridine-3-carboxamide]: 532 nM; for `CCc1cc2c(C(=O)NC)c(-c3ccc(Oc4ccccc4)cc3)oc2nc1N(C)S(C)(=O)=O` [Example 17, 5-ethyl-N-methyl-6-(N-methylmethylsulfonamido)-2-(4-phenoxyphenyl)furo[2,3-b]pyridine-3-carboxamide]: 128 nM. For `CNC(=O)c1c(-c2ccc(F)cc2)oc2nc(N(CCCCC(=O)OC)S(C)(=O)=O)c(I)cc12` [Example 18, 5-{[2-(4-Fluoro-phenyl)-5-iodo-3-methylcarbamoyl-furo[2,3-b]pyridin-6-yl]-methanesulfonyl-amino}-pentanoic acid methyl ester] the value was 115 nM; for `CNC(=O)c1c(-c2ccc(F)cc2)oc2nc(N(CCO)S(C)(=O)=O)c(I)cc12` [Example 18.1, 2-(4-fluorophenyl)-6-(N-(2-hydroxyethyl)methylsulfonamido)-5-iodo-N-methylfuro[2,3-b]pyridine-3-carboxamide], 451 nM. In the case of `CNC(=O)c1c(-c2ccc(F)cc2)oc2nc(N(CCCC#N)S(C)(=O)=O)c(I)cc12` [Example 18.2, 6-(N-(3-cyanopropyl)methylsulfonamido)-2-(4-fluorophenyl)-5-iodo-N-methylfuro[2,3-b]pyridine-3-carboxamide], the IC50 stood at 61 nM. For `C=CCCN(c1nc2oc(-c3ccc(F)cc3)c(C(=O)NC)c2cc1I)S(C)(=O)=O` [Example 18.3, 6-(N-(but-3-enyl)methylsulfonamido)-2-(4-fluorophenyl)-5-iodo-N-methylfuro[2,3-b]pyridine-3-carboxamide] the value was 103 nM; for `CNC(=O)c1c(-c2ccc(F)cc2)oc2nc(N(CCN3CCOCC3)S(C)(=O)=O)c(I)cc12` [Example 18.4, 2-(4-fluorophenyl)-5-iodo-N-methyl-6-(N-(2-morpholinoethyl)methylsulfonamido)furo[2,3-b]pyridine-3-carboxamide], 260 nM. The same measure for `C=CCCCN(c1nc2oc(-c3ccc(F)cc3)c(C(=O)NC)c2cc1I)S(C)(=O)=O` [Example 18.5, 2-(4-fluorophenyl)-5-iodo-N-methyl-6-(N-(pent-4-enyl)methylsulfonamido)furo[2,3-b]pyridine-3-carboxamide]: 449 nM.

Take `CNC(=O)c1c(-c2ccc(F)cc2)oc2nc(N(CCc3ccccc3OC)S(C)(=O)=O)c(I)cc12` [Example 18.6, 2-(4-fluorophenyl)-5-iodo-6-(N-(2-methoxyphenethyl)methylsulfonamido)-N-methylfuro[2,3-b]pyridine-3-carboxamide]: the IC50 came to 573 nM.

Consider `CNC(=O)c1c(-c2ccc(F)cc2)oc2nc(N(CCCC(=O)OC)S(C)(=O)=O)c(I)cc12` [Example 18.7, methyl 4-(N-(2-(4-fluorophenyl)-5-iodo-3-(methylcarbamoyl)furo[2,3-b]pyridin-6-yl)methylsulfonamido)butanoate], for which the IC50 was 76 nM.

In general, IC50 refers to the point on the concentration scale where inhibition reaches its midpoint.
